Test results from ChEMBL document CHEMBL1157485, “Studies on the structure-activity relationship of bicifadine analogs as monoamine transporter inhibitors” (Bioorg Med Chem Lett, 2008).
Active and inactive are the calls of the source. No cut-off for these calls is given here.

Experiments:
[1] = target: Sodium-dependent dopamine transporter (Rattus norvegicus, UniProt P23977); assay: Inhibition of dopamine uptake at cloned DAT in rat brain synaptosome; type: tissue-based
[2] = target: Transporter (Rattus norvegicus, UniProt Q63380); assay: Inhibition of norepinephrine uptake at NET in rat brain synaptosome; type: tissue-based
Sequence of Transporter (Q63380 whole entry): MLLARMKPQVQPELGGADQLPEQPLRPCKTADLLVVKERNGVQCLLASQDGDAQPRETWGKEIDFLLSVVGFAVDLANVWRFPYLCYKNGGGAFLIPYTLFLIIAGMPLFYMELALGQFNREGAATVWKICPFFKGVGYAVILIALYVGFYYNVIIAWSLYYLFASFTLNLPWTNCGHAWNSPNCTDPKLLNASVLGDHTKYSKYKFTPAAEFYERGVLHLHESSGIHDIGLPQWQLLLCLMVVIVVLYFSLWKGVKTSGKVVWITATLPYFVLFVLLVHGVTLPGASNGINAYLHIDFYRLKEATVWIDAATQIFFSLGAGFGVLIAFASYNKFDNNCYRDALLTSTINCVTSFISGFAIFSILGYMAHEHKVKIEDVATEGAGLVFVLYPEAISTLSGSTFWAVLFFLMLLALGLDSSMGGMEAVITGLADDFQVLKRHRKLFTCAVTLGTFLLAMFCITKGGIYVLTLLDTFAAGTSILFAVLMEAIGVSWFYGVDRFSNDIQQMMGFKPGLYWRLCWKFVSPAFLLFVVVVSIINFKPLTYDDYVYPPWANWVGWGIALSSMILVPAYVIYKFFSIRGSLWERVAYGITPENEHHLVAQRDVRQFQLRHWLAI

[3] = target: Sodium-dependent serotonin transporter (Rattus norvegicus, UniProt P31652); assay: Inhibition of serotonin uptake at SERT in rat brain synaptosome; type: tissue-based
Sequence of Sodium-dependent serotonin transporter (P31652 whole entry): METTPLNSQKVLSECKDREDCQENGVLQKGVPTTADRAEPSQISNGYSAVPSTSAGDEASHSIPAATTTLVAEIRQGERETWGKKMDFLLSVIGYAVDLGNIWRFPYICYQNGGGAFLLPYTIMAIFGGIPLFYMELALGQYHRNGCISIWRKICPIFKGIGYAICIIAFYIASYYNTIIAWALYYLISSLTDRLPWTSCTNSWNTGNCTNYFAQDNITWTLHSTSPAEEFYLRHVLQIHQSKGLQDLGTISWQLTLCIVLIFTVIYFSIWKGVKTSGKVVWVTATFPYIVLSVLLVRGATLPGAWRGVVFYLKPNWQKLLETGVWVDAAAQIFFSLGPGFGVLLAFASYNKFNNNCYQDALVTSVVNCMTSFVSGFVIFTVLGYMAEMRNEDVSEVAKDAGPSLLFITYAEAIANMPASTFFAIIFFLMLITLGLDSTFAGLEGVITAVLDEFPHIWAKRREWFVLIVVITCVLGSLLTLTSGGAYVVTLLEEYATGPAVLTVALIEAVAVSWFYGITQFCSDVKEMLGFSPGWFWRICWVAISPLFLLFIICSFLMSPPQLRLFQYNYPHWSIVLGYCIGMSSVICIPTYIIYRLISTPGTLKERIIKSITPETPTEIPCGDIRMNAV

[4] = Efflux ratio in human CaCo2 cells; type: ADME, cell-based; settings: Caco-2
[5] = tested on: Mus musculus; assay: Antinociceptive activity in formalin-treated mouse model of persistent pain assessed as reduction in number of hind paws flinches at 30 mg/kg; type: functional; set-up: scale not given: the % may be the effect or the level left
[6] = Apparent permeability across human CaCo2 cells; type: ADME, cell-based; settings: Caco-2
[7] = tested on: Mus musculus; assay: Antinociceptive activity in formalin-treated mouse model of persistent pain assessed as reduction in licking time at 60 mg/kg; type: functional

Sequence of Sodium-dependent dopamine transporter (P23977 whole entry): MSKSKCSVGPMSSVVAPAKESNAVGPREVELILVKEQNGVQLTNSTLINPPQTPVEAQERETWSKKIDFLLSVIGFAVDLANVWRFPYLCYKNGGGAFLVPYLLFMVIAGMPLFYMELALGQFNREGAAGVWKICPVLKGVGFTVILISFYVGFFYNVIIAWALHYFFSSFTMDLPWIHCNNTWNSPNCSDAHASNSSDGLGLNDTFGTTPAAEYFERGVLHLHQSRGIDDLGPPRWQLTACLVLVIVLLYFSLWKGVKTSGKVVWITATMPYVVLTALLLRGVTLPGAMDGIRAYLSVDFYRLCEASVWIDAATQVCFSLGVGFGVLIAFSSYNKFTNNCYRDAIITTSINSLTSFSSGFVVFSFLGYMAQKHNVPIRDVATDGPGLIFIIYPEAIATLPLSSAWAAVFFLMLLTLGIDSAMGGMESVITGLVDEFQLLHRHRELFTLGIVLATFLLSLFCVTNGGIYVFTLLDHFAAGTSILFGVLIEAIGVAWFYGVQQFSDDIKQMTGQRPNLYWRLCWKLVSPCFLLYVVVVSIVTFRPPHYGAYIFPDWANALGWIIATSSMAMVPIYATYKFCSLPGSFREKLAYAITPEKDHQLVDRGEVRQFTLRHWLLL

| SMILES | IC50 [1] [nM] | IC50 [2] [nM] | IC50 [3] [nM] | efflux ratio [4] | Activity [5] [%] | Papp [6] [×10⁻⁶ cm/s] | Activity [7] |
| --- | --- | --- | --- | --- | --- | --- | --- |
| c1cc2c(cc1[C@@]13CNC[C@@H]1C3)CCC2 | > 10000 | 2000 | 97 |  |  |  |  |
| c1csc([C@]23CNC[C@H]2C3)c1 | 2400 | 92 | 1900 | 0.7 | 40 | 17.6 |  |
| Fc1ccc([C@]23CNC[C@H]2C3)s1 | > 10000 | 470 | 8100 |  |  |  |  |
| Brc1ccc([C@@]23CNC[C@@H]2C3)s1 | 8200 | 340 | 380 |  |  |  |  |
| C[C@H]1[C@H]2CNC[C@]21c1ccc(Cl)c(Cl)c1 (relative stereo) | 500 | 500 | 200 |  |  |  |  |
| CN1CC2CC2(c2cccs2)C1 (stereo not given) | > 10000 | 1600 | 6300 |  |  |  |  |
| C[C@@H]1NC[C@@]2(c3cccs3)C[C@@H]12 (relative stereo) | 9500 | 560 | 6000 |  |  |  |  |
| c1ccc(-c2ccc(C34CNCC3C4)cc2)cc1 (stereo not given) | 2300 | 360 | 160 |  |  |  |  |
| Brc1ccc(C23CNCC2C3)s1 (stereo not given) | 2400 | 190 | 140 |  |  |  |  |
| Clc1ccc([C@@]23CNC[C@@H]2[C@H]3c2ccccc2)cc1Cl (relative stereo) | 360 | 34 | 350 |  |  |  |  |
| c1cc([C@@]23CNC[C@@H]2C3)cs1 | 8200 | 300 | 6800 |  |  |  |  |
| Clc1ccc([C@]23CNC[C@H]2C3)s1 | 1500 | 77 | 81 |  |  |  |  |
| Cc1csc(C23CNCC2C3)c1 (stereo not given) | > 10000 | 6800 | > 10000 |  |  |  |  |
| c1cnc2ccc(C34CNCC3C4)cc2c1 (stereo not given) | 3900 | 1400 | 640 |  |  |  |  |
| c1ccc2c(C34CNCC3C4)csc2c1 (stereo not given) | 780 | 220 | 73 |  |  |  |  |
| c1cc2c(cc1C13CNCC1C3)OCO2 (stereo not given) | > 10000 | 3500 | 1500 |  |  |  |  |
| CCOc1ccccc1O[C@@H](c1ccccc1)[C@@H]1CNCCO1 |  |  |  |  |  |  | inactive |
| c1csc([C@@]23CNC[C@@H]2C3)c1 | 6200 | 150 | 4900 |  |  |  |  |
| Clc1cc(Cl)c(C23CNCC2C3)s1 (stereo not given) | > 10000 | 5300 | 4200 |  |  |  |  |

| SMILES | IC50 [1] [nM] | IC50 [2] [nM] | IC50 [3] [nM] | efflux ratio [4] | Activity [5] [%] | Papp [6] [×10⁻⁶ cm/s] | Activity [7] |
| --- | --- | --- | --- | --- | --- | --- | --- |
| c1ccc2oc(C34CNCC3C4)cc2c1 (stereo not given) | 330 | 48 | 140 |  |  |  |  |
| CC1(C)C2CNCC21c1ccccc1 (stereo not given) | > 10000 | 7200 | 1800 |  |  |  |  |
| c1cc2c(cc1[C@@]13CNC[C@@H]1C3)CCO2 | 9100 | 4800 | 610 |  |  |  |  |
| c1ccc([C@@H]2[C@H]3CNC[C@]32c2ccccc2)cc1 | 8700 | 120 | 240 |  |  |  |  |
| c1ccc2sc(C34CNCC3C4)cc2c1 (stereo not given) | 180 | 53 | 71 |  |  |  |  |
| Fc1ccc2sc([C@]34CNC[C@H]3C4)cc2c1 | 420 | 67 | 33 |  |  |  |  |
| FC12CNCC1(c1ccccc1)C2 (stereo not given) | > 10000 | 1800 | 2900 |  |  |  |  |
| c1csc(C23CNCC2C3)c1 (stereo not given) | 7500 | 130 | 4500 |  |  |  |  |
| Clc1ccc(C23CNCC2C3)s1 (stereo not given) | 3300 | 130 | 190 |  |  |  |  |
| C[C@H]1NC[C@@H]2C[C@@]21c1cccs1 (relative stereo) | 8900 | 150 | 5800 |  |  |  |  |
| C[C@H]1NC[C@@]2(c3cccs3)C[C@@H]12 (relative stereo) | 3400 | 320 | 7600 |  |  |  |  |
| Cc1ccc(C23CNCC2C3)cc1 (stereo not given) [BICIFADINE] |  |  |  |  |  |  | 89% |
| FC(F)(F)c1ccc(C23CNCC2C3)s1 (stereo not given) | > 10000 | 3100 | 190 |  |  |  |  |
| Clc1ccc([C@@]23CNC[C@@H]2C3)s1 | 2500 | 590 | 1300 |  |  |  |  |
| c1ccc(C23CNCC2C3)cc1 (stereo not given) | 2700 | 350 | 5200 |  |  |  |  |
| C[C@@H]1[C@H]2CNC[C@@]12c1ccc(Cl)c(Cl)c1 (relative stereo) | 400 | 29 | 190 |  |  |  |  |
| O=C1NCC2CC12c1cccs1 (stereo not given) | > 10000 | > 10000 | > 10000 |  |  |  |  |
| c1ccc2cc(C34CNCC3C4)ccc2c1 (stereo not given) | 190 | 36 | 50 |  |  |  |  |
